The nature of data set [1]: Hygroscopicity study by dynamic vapor sorption (DVS) analysis. The data set is classed as physicochemical. The note with it: under 40%, 80%, and 90% relative humidity (RH) at 25 °C, comparing with compound prepared in EXAMPLE 2. As for the experimental part: Hygroscopicity study by dynamic vapor sorption analysis (DVS)
Hygroscopicity study is performed using Surface Measurement Systems DVS-1. The sample is placed on a microbalance in the instrument and the weight change during the sorption/desorption cycle at 25° C. is monitored. One of the sorption/desorption programs consists of a sorption scan from 0 to 95% relative humidity (RH) and a desorption scan from 95 to 10% RH. The other consists of a sorption scan from 40 to 95% RH and desorption scan from 95 to 0% RH, followed by a second sorption scan from 0 to 40% RH. Both programs are carried out at 5% RH increments and the sample is allowed to equilibrate for 360 minutes or until equilibration had been attained at each step. At the end of the DVS experiment the sample is measured by PXRD.

Data set [2] can be described thus: Photostability / storage stability study. The data set is classed as physicochemical. As for the experimental part: Photostability samples are stored in open dishes with quartz glass covers and a second set of 25° C./60% RH, and 40° C./75% RH samples which are stored in open round amber glass bottles covered with gauze.

Turning to `CN1N=C2CCN(C(=O)[C@@H](COCc3ccccc3)NC(=O)C(C)(C)N)C[C@@]2(Cc2ccccc2)C1=O.O=C(O)C(O)C(O)C(=O)O` [Polymorph Form I, 2-amino-N-[2-(3a-(R)-benzyl-2-methyl-3-oxo-2,3,3a,4,6,7-hexahydro-pyrazolo[4,3-c]pyridin-5-yl)-1-(R)-benzyloxymethyl-2-oxo-ethyl]-isobutyramide L-tartrate Polymorph Form I], the moisture gain in data set [1] was less than 2%. Moreover, the loss in potency entry in data set [2] (any of the stability samples over 3 months) is recorded as “No significant loss”. In data set [2] (storage over 3 months, photostability, 25°C/60% RH and 40°C/75% RH samples), the “changes in the appearance, the X-ray diffraction patterns, and IR spectra” value is “no significant changes”.

The values are drawn from patent US9499543B2, “Polymorph forms” (RaQualia Pharma Inc., priority 2013, dated 2016).
